Results reported in ChEMBL document CHEMBL1150456, “Synthesis of 2-O-heteroaroyl taxanes: evaluation of microtubule assembly promotion and cytotoxicity” (1995).

Key:
Tubulin (Bos taurus) = Tubulin (Bos taurus) (UniProt Q6B856+Q862L2+Q862F3); assay: Concentration which causes polymerization of 50% of the tubulin present in 15 min at 37 degree C was tested in vitro relative to paclitaxel (1); format: functional
B16 = assay: Concentration which produces 50% inhibition of proliferation of B16 melanoma cytotoxic cells after 40h of incubation was tested in vitro relative to paclitaxel (1); format: functional, Mus musculus

Row | Compound | Ratio (Tubulin (Bos taurus)) | Ratio (B16)
1 | CC(=O)O[C@H]1C(=O)[C@@]2(C)[C@H]([C@H](OC(=O)c3ccccc3)[C@]3(O)C[C@H](OC(=O)[C@H](O)[C@@H](NC(=O)c4ccccc4)c4ccccc4)C(C)=C1C3(C)C)[C@]1(OC(C)=O)CO[C@@H]1C[C@@H]2O [PACLITAXEL] | 1 | 1
2 | CC(=O)O[C@H]1C(=O)[C@]2(C)[C@@H](O)CC3OC[C@@]3(OC(C)=O)[C@H]2[C@H](OC(=O)c2ccoc2)[C@]2(O)C[C@H](OC(=O)[C@H](O)[C@@H](NC(=O)c3ccccc3)c3ccccc3)C(C)=C1C2(C)C (stereo partly drawn) | 2.1 | 8.2
3 | CC(=O)O[C@H]1C(=O)[C@]2(C)[C@@H](O)CC3OC[C@@]3(OC(C)=O)[C@H]2[C@H](OC(=O)c2ccccn2)[C@]2(O)C[C@H](OC(=O)[C@H](O)[C@@H](NC(=O)c3ccccc3)c3ccccc3)C(C)=C1C2(C)C (stereo partly drawn) | 2.8 | 8.7
4 | CC(=O)O[C@H]1C(=O)[C@]2(C)[C@@H](O)CC3OC[C@@]3(OC(C)=O)[C@H]2[C@H](OC(=O)c2ccco2)[C@]2(O)C[C@H](OC(=O)[C@H](O)[C@@H](NC(=O)c3ccccc3)c3ccccc3)C(C)=C1C2(C)C (stereo partly drawn) | 2.4 | 14
5 | CC(=O)O[C@H]1C(=O)[C@]2(C)[C@@H](O)CC3OC[C@@]3(OC(C)=O)[C@H]2[C@H](OC(=O)c2ccsc2)[C@]2(O)C[C@H](OC(=O)[C@H](O)[C@@H](NC(=O)c3ccccc3)c3ccccc3)C(C)=C1C2(C)C (stereo partly drawn) | 1.4 | 2.1
6 | CC(=O)O[C@H]1C(=O)[C@]2(C)[C@@H](O)CC3OC[C@@]3(OC(C)=O)[C@H]2[C@H](OC(=O)c2ccncc2)[C@]2(O)C[C@H](OC(=O)[C@H](O)[C@@H](NC(=O)c3ccccc3)c3ccccc3)C(C)=C1C2(C)C (stereo partly drawn) | 7.3 | >36
7 | CC(=O)O[C@H]1C(=O)[C@]2(C)[C@@H](O)CC3OC[C@@]3(OC(C)=O)[C@H]2[C@H](OC(=O)c2cccn2C)[C@]2(O)C[C@H](OC(=O)[C@H](O)[C@@H](NC(=O)c3ccccc3)c3ccccc3)C(C)=C1C2(C)C (stereo partly drawn) | 2.6 | 2.6
8 | CC(=O)O[C@H]1C(=O)[C@]2(C)[C@@H](O)CC3OC[C@@]3(OC(C)=O)[C@H]2[C@H](OC(=O)c2cccnc2)[C@]2(O)C[C@H](OC(=O)[C@H](O)[C@@H](NC(=O)c3ccccc3)c3ccccc3)C(C)=C1C2(C)C (stereo partly drawn) | 4 | >36
9 | CC(=O)O[C@H]1C(=O)[C@]2(C)[C@@H](O)CC3OC[C@@]3(OC(C)=O)[C@H]2[C@H](OC(=O)c2cccs2)[C@]2(O)C[C@H](OC(=O)[C@H](O)[C@@H](NC(=O)c3ccccc3)c3ccccc3)C(C)=C1C2(C)C (stereo partly drawn) | 1.1 | 3.8
